Consider 30 molecules from patent US20050014765A1, “Aryl-heteroaromatic products, compositions comprising them and use” (Aventis Pharma S.A., priority 2003, published 2005).

Structures can show the parent of a compound that is named as a salt.

Assay [1] concerns HCT116 cells. The assay can be described thus: Inhibition of proliferation of the HCT116 human colon tumor line ([14C]-thymidine incorporation). Type of assay: cell-based. The note with it: HCT-116, 48 hours incubation at 37° C., read-out: Inhibition of HCT116 proliferation IC 50. How it is done: Test for Determining the Inhibition of Proliferation of the HCT116 Human Colon Tumor Line
The proliferation of HCT116 cells is evaluated by mesuring the incorporation of [^14C]-thymidine in the following way. The HCT166 cells (from the ATCC) are cultured in a DMEM medium (Gibco) which contains 10% of fetal calf serum and antibiotics (1% penicillin, 1% streptomycin). To perform the proliferation test, the cells are seeded into 96-well cytostar microplates (Amersham) at the rate of 5000 cells per well. The [^14C]-thymidine (0.1 μCi/well) and the products to be evaluated are subsequently added. Variable concentrations of products up to 10 μM are used; the DMSO (solvent used to dissolve the products) should not exceed 0.5% in the medium. 48 hours after incubation at 37° C., the radioactivity incorporated into the cells is measured by counting the plate in a Tri-Lux counter (Wallac). The IC50 is defined as the concentration of product which reduces the radioactivity by 50% compared with an untreated control. A product with an IC50 of less than 10 μm is regarded as cytotoxic.
For orientation: Incorporation of labelled thymidine or its analogues reports DNA synthesis.

Assay [2] has as its target T1, Tubulin purified from pig brains (Sus scrofa, UniProt P02550+P02554).
T1 construct: Tubulin is purified from pig brains according to published methods; from tissue; host or cells: pig brain
The assay can be described thus: Assessment of the inhibition of tubulin polymerization (turbidimetry at 350 nm). Type of assay: biochemical. The conditions noted are these: concentration which inhibits the rate of polymerization by 50%; tubulin 1 mg/ml, 37° C.; read-out: Inhibition of tubulin polymerization IC 50. How it is done: Assessment of the Inhibition of Tubulin Polymerization
Tubulin is purified from pig brains according to published methods (Shelanski et al., 1973, Proc. Natl. Acad. Sci. USA, 70, 765-768. Weingarten et al., 1975, Proc. Natl. Acad. Sci. USA, 72, 1858-1862). Briefly, the brains are ground and centrifuged in an extraction buffer. The tubulin, present in the extract supernatant is subjected to two successive cycles of polymerization at 37° C. and depolymerization at 4° C., before being separated from the MAPs (Microtubule Associated Proteins) by chromatography on a phosphocellulose P11 column (Whatman). The tubulin thus isolated is more than 95% pure. It is stored in a buffer known as RB/2 30% glycerol, the composition of which is 50 mM MES-NaOH [2-(N-morpholino)ethanesulfonic acid], pH 6.8; 0.25 mM MgCl2; 0.5 mM EGTA; 30% (v/v) glycerol, 0.2 mM GTP (guanosine 5′-triphosphate).
The polymerization of the tubulin into microtubules is monitored by turbidimetry as follows: the tubulin is adjusted to a concentration of 10 μm (1 mg/ml) in the RB/2 30% glycerol buffer, to which are added 1 mM GTP and 6 mM MgCl2. The polymerization is initiated by increasing the temperature from 6° C. to 37° C. in a cuvette with a 1 cm optical pathlength, placed in a UVIKON 931 spectrophotometer (Kontron) equipped with a thermostatically-regulated cuvette holder. The increase in turbidity of the solution is monitored at 350 nm.
The products are dissolved at 10 mM in DMSO and added at variable concentrations (0.5 to 10 μm) to the tubulin solution before polymerization. The IC50 is defined as the concentration of the product which inhibits the rate of polymerization by 50%.

T1 sequence (P02550 whole entry): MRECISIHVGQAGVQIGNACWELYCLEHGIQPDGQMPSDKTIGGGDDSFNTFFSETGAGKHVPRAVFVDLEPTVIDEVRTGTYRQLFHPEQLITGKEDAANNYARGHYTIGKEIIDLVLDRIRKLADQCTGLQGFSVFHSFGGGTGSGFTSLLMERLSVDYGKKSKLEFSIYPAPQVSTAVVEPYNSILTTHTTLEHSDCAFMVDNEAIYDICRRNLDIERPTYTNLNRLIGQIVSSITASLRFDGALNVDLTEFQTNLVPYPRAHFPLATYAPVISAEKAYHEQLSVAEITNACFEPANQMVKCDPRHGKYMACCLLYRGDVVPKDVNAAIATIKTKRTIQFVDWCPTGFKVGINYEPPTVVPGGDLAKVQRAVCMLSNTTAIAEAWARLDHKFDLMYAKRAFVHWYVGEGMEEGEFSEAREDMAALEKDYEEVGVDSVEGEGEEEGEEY
T1 sequence (P02554 whole entry): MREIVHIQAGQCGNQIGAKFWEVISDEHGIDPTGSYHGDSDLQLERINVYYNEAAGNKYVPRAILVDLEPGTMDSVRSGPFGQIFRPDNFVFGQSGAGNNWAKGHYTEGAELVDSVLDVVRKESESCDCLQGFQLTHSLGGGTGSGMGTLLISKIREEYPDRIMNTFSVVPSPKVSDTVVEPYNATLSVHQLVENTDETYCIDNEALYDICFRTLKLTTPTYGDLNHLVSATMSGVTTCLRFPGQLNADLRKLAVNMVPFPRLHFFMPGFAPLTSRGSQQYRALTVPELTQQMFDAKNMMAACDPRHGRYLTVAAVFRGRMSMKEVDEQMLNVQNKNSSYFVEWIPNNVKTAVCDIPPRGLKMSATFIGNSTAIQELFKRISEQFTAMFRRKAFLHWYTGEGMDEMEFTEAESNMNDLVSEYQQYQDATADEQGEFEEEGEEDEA

Regarding `O=C(c1cncn1-c1ccccc1)N1CCN(c2cccc(Cl)c2)CC1` [Example 1, [4-(3-Chlorophenyl)piperazin-1-yl](1-phenyl-1H-imidazol-5-yl)methanone], the results for the IC50 in assay [1] and in assay [2] were 29.6 nM and 2000 nM, respectively.

As to `O=C(c1ncoc1-c1ccccc1)N1CCN(c2cccc(Cl)c2)CC1` [Example 2, [4-(3-Chlorophenyl)piperazin-1-yl](5-phenyl-1,3-oxazol-4-yl)methanone], the figures for the IC50 in assay [1] and in assay [2] were 8750 nM and 22000 nM, respectively. Taken in the same sequence, the figures for `O=C(c1[nH]cnc1-c1ccccc1)N1CCN(c2cccc(Cl)c2)CC1` [Example 3, [4-(3-Chlorophenyl)piperazin-1-yl](4-phenyl-1H-imidazol-5-yl)methanone] were 6.8 nM and 1000 nM. The like results for `O=C(c1sccc1-c1ccccc1)N1CCN(c2cccc(Cl)c2)CC1` [Example 4, [4-(3-Chlorophenyl)piperazin-1-yl](3-phenylthiophen-2-yl)methanone] were, in that order, 52.5 nM and 2000 nM. Regarding `COc1cccc(N2CCN(C(=O)c3ccoc3-c3ccc(Cl)cc3)CC2)c1` [Example 5, [4-(3-Methoxyphenyl)piperazin-1-yl][2-(4-chlorophenyl)furan-3-yl]methanone], in assay [2], the IC50 was found to be 11500 nM. Regarding `O=C(c1[nH]ccc1-c1ccccc1)N1CCN(c2cccc(Cl)c2)CC1` [Example 6, [4-(3-Chlorophenyl)piperazin-1-yl](3-phenyl-1H-pyrrol-2-yl)methanone], the IC50 in assay [1] stood at 34 nM; in assay [2], 690 nM.

As to `Cn1ccc(-c2ccccc2)c1C(=O)N1CCN(c2cccc(Cl)c2)CC1` [Example 7, [4-(3-Chlorophenyl)piperazin-1-yl](1-methyl-3-phenyl-1H-pyrrol-2-yl)-methanone], the IC50 in assay [2] was 12800 nM. In the case of `COc1cc(OC)cc(N2CCN(C(=O)c3[nH]ccc3-c3ccccc3)CC2)c1` [Example 8, [4-(3,5-Dimethoxyphenyl)piperazin-1-yl](3-phenyl-1H-pyrrol-2-yl)methanone], the IC50 in assay [1] is 2.9 nM; in assay [2], 1200 nM.

For the molecule `O=C(c1[nH]cnc1-c1ccccc1)N1CCN(c2cccnc2)CC1` [Example 10, [4-(Pyridin-3-yl)piperazin-1-yl](4-phenyl-1H-imidazol-5-yl)methanone], the results for the IC50 in assay [1] and in assay [2] were 88.5 nM and 3100 nM, respectively. Taken in the same sequence, the figures for `COc1cc(OC)cc(N2CCN(C(=O)c3cncn3-c3ccccc3)CC2)c1` [Example 11, [4-(3,5-Dimethoxyphenyl)piperazin-1-yl](1-phenyl-1H-imidazol-5-yl)-methanone hydrochloride] were 45.7 nM and 2400 nM.

For the molecule `CC(=O)Nc1cccc(N2CCN(C(=O)c3[nH]cnc3-c3ccccc3)CC2)c1` [Example 12, [4-(3-Acetylaminophenyl)piperazin-1-yl](4-phenyl-1H-imidazol-5-yl)methanone], the IC50 came to 1190 nM in assay [1] and 3500 nM in assay [2]. Turning to `COc1cc(OC)cc(N2CCN(C(=O)c3cc[nH]c3-c3ccccc3)CC2)c1` [Example 21, [4-(3,5-Dimethoxyphenyl)piperazin-1-yl](2-phenyl-1H-pyrrol-3-yl)methanone], in assay [2], the IC50 is 9700 nM.

As for `CN(C)CCn1cc(C(=O)N2CCN(c3cccc(Cl)c3)CC2)c(-c2ccccc2)c1` [Example 31, [4-(3-Chlorophenyl)piperazin-1-yl][1-(2-dimethylaminoethyl)-4-phenyl-1H-pyrrol-3-yl]methanone hydrochloride], in assay [2], the IC50 is 25000 nM. Regarding `O=C(O)CCn1cc(C(=O)N2CCN(c3cccc(Cl)c3)CC2)c(-c2ccccc2)c1` [Example 32, 3-{3-[4-(3-Chlorophenyl)piperazin-1-ylcarbonyl]-4-phenylpyrrol-1-yl}-propionic acid], in assay [2], the IC50 stood at 2740 nM. Take `NC(=O)c1cccc(N2CCN(C(=O)c3[nH]c(S)nc3-c3ccccc3)CC2)c1` [Example 44, 3-[4-(2-Mercapto-4-phenyl-1H-imidazol-5-ylcarbonyl)piperazin-1-yl]benzamide]: the IC50 in assay [2] was 1060 nM. On the same count and under the same terms, then `COc1cc(OC)cc(N2CCN(C(=O)c3cn(Cc4cscn4)cc3-c3ccccc3)CC2)c1` [Example 45, [4-(3,5-Dimethoxyphenyl)piperazin-1-yl][1-(thiazol-4-yl)methyl-4-phenyl-1H-pyrrol-3-yl]methanone], with 4850 nM; and `COC(=O)Cn1ccc(C(=O)N2CCN(c3cc(OC)cc(OC)c3)CC2)c1-c1ccccc1` [Example 49, Methyl 2-{3-[4-(3,5-dimethoxyphenyl)piperazin-1-yl]carbonyl-2-phenyl-1H-pyrrol-1-yl}acetate], with 1570 nM. On the same count and under the same terms, then `COc1cc(OC)cc(N2CCN(C(=O)c3ccn(Cc4cccnc4)c3-c3ccccc3)CC2)c1` [Example 64, [4-(3,5-Dimethoxyphenyl)piperazin-1-yl][1-(3-pyridyl)methyl-2-phenyl-1H-pyrrol-3-yl]methanone], with 13400 nM.

Turning to `COC(=O)Cn1cc(C(=O)N2CCN(c3cccc(C(N)=O)c3)CC2)c(-c2ccccc2)c1` [Example 65], in assay [2], the IC50 came out at 13500 nM. On the same count and under the same terms, then `CS(=O)(=O)c1nc(-c2ccccc2)c(C(=O)N2CCN(c3cccc(C(N)=O)c3)CC2)[nH]1` [Example 71, 3-[4-(2-Methylsulfonyl-4-phenyl-1H-imidazol-4-ylcarbonyl)piperazin-1-yl]benzamide], with 13900 nM; and `NC(=O)c1cccc(N2CCN(C(=O)c3ccn(CCO)c3-c3ccccc3)CC2)c1` [Example 77, 3-[4-(1-Hydroxyethyl-2-phenyl-1H-pyrrol-3-ylcarbonyl)piperazin-1-yl]-benzamide], with 3610 nM; and `Cn1ccc(C(=O)N2CCN(c3cccc(CO)c3)CC2)c1-c1ccccc1` [Example 80, [4-(3-Hydroxymethylphenyl)piperazin-1-yl](1-methyl-2-phenyl-1H-pyrrol-3-yl)-methanone], with 7760 nM. The same measure, in the same setting: then `O=C(c1[nH]c(C(F)(F)F)nc1-c1ccccc1)N1CCN(c2cccc(CO)c2)CC1` [Example 83, [4-(3-Hydroxymethylphenyl)piperazin-1-yl](2-trifluoromethyl-4-phenyl-1H-imidazol-5-yl)methanone], with 1410 nM; and `N#Cc1cccc(N2CCN(C(=O)c3[nH]c(C(F)(F)F)nc3-c3ccccc3)CC2)c1` [Example 84, 3-[4-(2-Trifluoromethyl-4-phenyl-1H-imidazol-5-ylcarbonyl)piperazin-1-yl]-benzonitrile], with 574 nM. Same read-out and setting: then `O=C(c1cc[nH]c1-c1ccccc1)N1CCN(c2cccc(CO)c2)CC1` [Example 86, [4-(3-Hydroxymethylphenyl)piperazin-1-yl](2-phenyl-1H-pyrrol-3-yl)methanone], with 6410 nM; and `N#Cc1cccc(N2CCN(C(=O)c3cn(CCO)cc3-c3ccccc3)CC2)c1` [Example 87, 3-[4-(1-Hydroxyethyl-4-phenyl-1H-pyrrol-3-ylcarbonyl)piperazin-1-yl]-benzonitrile], with 582 nM.

For `O=C(c1ccn(CCO)c1-c1ccccc1)N1CCN(c2cccc(CO)c2)CC1` [Example 89], the IC50 in assay [2] turned out to be 2990 nM. On the same count and under the same terms, for `COCCNc1nc(-c2ccccc2)c(C(=O)N2CCN(c3cc(C)cc(C)c3)CC2)s1` [Example 90, [4-(3,5-Dimethylphenyl)piperazin-1-yl][2-(2-methoxyethyl)amino-4-phenylthiazol-5-yl]methanone] the value was 95 nM; for `COCCNc1nc(-c2ccccc2)c(C(=O)N2CCN(c3cc(OC)cc(OC)c3)CC2)s1` [Example 91, [4-(3,5-Dimethoxyphenyl)piperazin-1-yl][2-(2-methoxyethyl)amino-4-phenylthiazol-5-yl]methanone], 89 nM. As to `N#Cc1cccc(N2CCN(C(=O)c3cn(Cc4cccnc4)cc3-c3ccccc3)CC2)c1` [Example 92, 3-{4-[1-(Pyridin-3-yl)methyl-4-phenyl-1H-pyrrol-3-ylcarbonyl]piperazin-1-yl}-benzonitrile], in assay [2], the IC50 was 167 nM.
